Measured values reported in patent publication US20020137929A1, “1 - (3-heterocyclylphenyl) isothiourea, -isourea, -guanidine and -amidine herbicidal agents” (Intellectual Property Department, BASF Aktiengesellschaft, priority 1998, published 2002).

Key:
CYPIR (Rice Flatsedge) = experiment: Preemergence weed control under flooded paddy conditions; type: in vivo, Cyperus iria; details: rated 3-4 weeks after treatment
Method in brief: (§1)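 Seeds or propagules sown in top 0.5 cm of silt loam soil, flooded 1.5 to 3 cm above surface throughout. Compound in 50/50 v/v aqueous/acetone pipetted into flood water at about 0.0313 to 0.500 kg/ha. Visual 0-9 rating versus control after three to four weeks in greenhouse.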

[1] = tested on: IPOHE (Morningglory, Ivyleaf); experiment: Preemergence herbicidal evaluation; type: in vivo, Ipomoea hederacea; details: rated 4-5 weeks after treatment
Method in brief: (§2)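 In this greenhouse assay, monocot and dicot seeds are planted in soil and treated prior to emergence with an aqueous acetone spray (about 0.0156-0.500 kg/ha). Plants are assessed visually against control on a 0-9 scale after 4-5 weeks.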

[2] = tested on: ECHORC (Watergrass (Calif.)); experiment: Preemergence weed control under flooded paddy conditions; type: in vivo, Echinochloa oryzoides; details: rated 3-4 weeks after treatment
Method in brief: as §1

[3] = tested on: ECHORC (Watergrass (Calif.)); experiment: Postemergence weed control under flooded paddy conditions; type: in vivo, Echinochloa oryzoides; details: postemergence weeds, 3-4 weeks after treatment
Method in brief: (§3)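 With weeds 3 to 5 cm tall and rice at the 1.5 to 2.5 leaf stage, containers were flooded and water held 1.5 to 3 cm above soil. Compounds in 50/50 v/v aqueous/acetone went into the flood water at about 0.0313 to 0.500 kg/ha a.i. Effects were visually rated 0–9 against controls after three to four weeks in the greenhouse.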

ECHCG (Barnyardgrass) = experiment: Preemergence herbicidal evaluation; type: in vivo, Echinochloa crus-galli; details: rated 4-5 weeks after treatment
Method in brief: as §2

[4] = tested on: SAGPY (Arrowhead (Pygmaea)); experiment: Postemergence weed control under flooded paddy conditions; type: in vivo, Sagittaria pygmaea; details: postemergence weeds, 3-4 weeks after treatment
Method in brief: as §3

ZEAMX (Corn, Field) = experiment: Preemergence herbicidal evaluation; type: in vivo, Zea mays; details: rated 4-5 weeks after treatment
Method in brief: as §2

MOOVA (Monochoria) = experiment: Preemergence weed control under flooded paddy conditions; type: in vivo, Monochoria vaginalis; details: rated 3-4 weeks after treatment
Method in brief: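 Visual injury scored 0-9 against control three to four weeks post-treatment, greenhouse-grown. Application: acetone/water (50/50) solutions dosed directly into flood water (1.5-3 cm over silt loam, planted top 0.5 cm), roughly 0.0313 to 0.500 kg/ha active ingredient.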

[5] = tested on: TRZAWR (Wheat, Winter, cv Riband); experiment: Postemergence herbicidal evaluation; type: in vivo, Triticum aestivum
Method in brief: (§4)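 Seedlings grown about two weeks were sprayed at 40 psi with compound dispersed in 50/50 acetone/water plus 0.5% TWEEN 20, at about 0.0156 to 0.500 kg/ha. Plants were kept in the greenhouse and scored 4–5 weeks later on a 0–9 visual scale against untreated controls.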

SETVI (Foxtail, Green) [6] = experiment: Preemergence herbicidal evaluation; type: in vivo, Setaria viridis; details: rated 4-5 weeks after treatment
Method in brief: as §2

[7] = tested on: IPOHE (Morningglory, Ivyleaf); experiment: Postemergence herbicidal evaluation; type: in vivo, Ipomoea hederacea
Method in brief: as §4

GALAP (Galium) = experiment: Postemergence herbicidal evaluation; type: in vivo, Galium aparine
Method in brief: as §4

ABUTH (Velvetleaf) = experiment: Preemergence herbicidal evaluation; type: in vivo, Abutilon theophrasti; details: rated 4-5 weeks after treatment
Method in brief: as §2

SETVI (Foxtail, Green) [8] = experiment: Postemergence herbicidal evaluation; type: in vivo, Setaria viridis
Method in brief: as §4

CCOC(=O)CN1C(=O)C[S+]([O-])/C1=N/c1cc(-n2c(=O)cc(C(F)(F)F)n(C)c2=O)c(F)cc1Cl (stereo not drawn) [Compound 45, 2-{{2-Chloro-5-[3,6-dihydro-3-methyl-2,6-dioxo-4-(trifluoromethyl)-1(2H)-pyrimidinyl]-4-fluoro-phenyl}imino}-4-oxo-3-thiazolidineacetic acid, ethyl ester, 1-oxide]
Herbicidal rating CYPIR (CYPIR (Rice Flatsedge); 0.0313 kg/ha): 0.0
Herbicidal rating CYPIR (CYPIR (Rice Flatsedge); 0.0625 kg/ha): 3.0
Herbicidal rating CYPIR (CYPIR (Rice Flatsedge); 0.1250 kg/ha): 7.0
Herbicidal rating CYPIR (CYPIR (Rice Flatsedge); 0.2500 kg/ha): 7.0
Preemergence herbicidal rating IPOHE ([1]; rate 0.0156 kg/ha): 0.0
Preemergence herbicidal rating IPOHE ([1]; rate 0.0313 kg/ha): 0.0
Preemergence herbicidal rating IPOHE ([1]; rate 0.0625 kg/ha): 0.0
Preemergence herbicidal rating IPOHE ([1]; rate 0.1250 kg/ha): 0.0
Preemergence herbicidal rating IPOHE ([1]; rate 0.2500 kg/ha): 1.0
Herbicidal rating ECHORC ([2]; 0.0313 kg/ha): 3.0
Herbicidal rating ECHORC ([2]; 0.0625 kg/ha): 4.0
Herbicidal rating ECHORC ([2]; 0.1250 kg/ha): 7.0
Herbicidal rating ECHORC ([2]; 0.2500 kg/ha): 7.0
Herbicidal rating ECHORC ([3]; rate 0.0313 kg/ha): 3.0
Herbicidal rating ECHORC ([3]; rate 0.0625 kg/ha): 4.0
Herbicidal rating ECHORC ([3]; rate 0.1250 kg/ha): 7.0
Herbicidal rating ECHORC ([3]; rate 0.2500 kg/ha): 7.0
Preemergence herbicidal rating ECHCG (ECHCG (Barnyardgrass); rate 0.0156 kg/ha): 0.0
Preemergence herbicidal rating ECHCG (ECHCG (Barnyardgrass); rate 0.0313 kg/ha): 0.0
Preemergence herbicidal rating ECHCG (ECHCG (Barnyardgrass); rate 0.0625 kg/ha): 0.0
Preemergence herbicidal rating ECHCG (ECHCG (Barnyardgrass); rate 0.1250 kg/ha): 0.0
Preemergence herbicidal rating ECHCG (ECHCG (Barnyardgrass); rate 0.2500 kg/ha): 0.0
Herbicidal rating SAGPY ([4]; rate 0.0313 kg/ha): 0.0
Herbicidal rating SAGPY ([4]; rate 0.0625 kg/ha): 0.0
Herbicidal rating SAGPY ([4]; rate 0.1250 kg/ha): 0.0
Herbicidal rating SAGPY ([4]; rate 0.2500 kg/ha): 4.0
Preemergence herbicidal rating ZEAMX (ZEAMX (Corn, Field); rate 0.0156 kg/ha): 0.0
Preemergence herbicidal rating ZEAMX (ZEAMX (Corn, Field); rate 0.0313 kg/ha): 0.0
Preemergence herbicidal rating ZEAMX (ZEAMX (Corn, Field); rate 0.0625 kg/ha): 0.0
Preemergence herbicidal rating ZEAMX (ZEAMX (Corn, Field); rate 0.1250 kg/ha): 2.0
Preemergence herbicidal rating ZEAMX (ZEAMX (Corn, Field); rate 0.2500 kg/ha): 4.0
Herbicidal rating MOOVA (MOOVA (Monochoria); 0.0313 kg/ha): 7.0
Herbicidal rating MOOVA (MOOVA (Monochoria); 0.0625 kg/ha): 7.0
Herbicidal rating MOOVA (MOOVA (Monochoria); 0.1250 kg/ha): 9.0
Herbicidal rating MOOVA (MOOVA (Monochoria); 0.2500 kg/ha): 9.0
Postemergence herbicidal rating TRZAWR ([5]; Rate 0.0156 kg/ha): 4.0
Postemergence herbicidal rating TRZAWR ([5]; Rate 0.0313 kg/ha): 4.0
Postemergence herbicidal rating TRZAWR ([5]; Rate 0.0625 kg/ha): 4.5
Preemergence herbicidal rating SETVI (SETVI (Foxtail, Green) [6]; rate 0.0156 kg/ha): 0.0
Preemergence herbicidal rating SETVI (SETVI (Foxtail, Green) [6]; rate 0.0313 kg/ha): 0.0
Preemergence herbicidal rating SETVI (SETVI (Foxtail, Green) [6]; rate 0.0625 kg/ha): 0.0
Preemergence herbicidal rating SETVI (SETVI (Foxtail, Green) [6]; rate 0.1250 kg/ha): 0.0
Preemergence herbicidal rating SETVI (SETVI (Foxtail, Green) [6]; rate 0.2500 kg/ha): 0.0
Postemergence herbicidal rating IPOHE ([7]; Rate 0.0156 kg/ha): 9.0
Postemergence herbicidal rating IPOHE ([7]; Rate 0.0313 kg/ha): 9.0
Postemergence herbicidal rating IPOHE ([7]; Rate 0.0625 kg/ha): 9.0
Postemergence herbicidal rating GALAP (GALAP (Galium); Rate 0.0156 kg/ha): 0.0
Postemergence herbicidal rating GALAP (GALAP (Galium); Rate 0.0313 kg/ha): 0.0
Postemergence herbicidal rating GALAP (GALAP (Galium); Rate 0.0625 kg/ha): 0.0
Preemergence herbicidal rating ABUTH (ABUTH (Velvetleaf); rate 0.0156 kg/ha): 0.0
Preemergence herbicidal rating ABUTH (ABUTH (Velvetleaf); rate 0.0313 kg/ha): 9.0
Preemergence herbicidal rating ABUTH (ABUTH (Velvetleaf); rate 0.0625 kg/ha): 9.0
Preemergence herbicidal rating ABUTH (ABUTH (Velvetleaf); rate 0.1250 kg/ha): 9.0
Preemergence herbicidal rating ABUTH (ABUTH (Velvetleaf); rate 0.2500 kg/ha): 9.0
Postemergence herbicidal rating SETVI (SETVI (Foxtail, Green) [8]; Rate 0.0156 kg/ha): 0.0
Postemergence herbicidal rating SETVI (SETVI (Foxtail, Green) [8]; Rate 0.0313 kg/ha): 0.0
Postemergence herbicidal rating SETVI (SETVI (Foxtail, Green) [8]; Rate 0.0625 kg/ha): 2.0
